From PubChem BioAssay (NCI)
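Each compound was tested at five concentrations against cells in 96-well plates for 48 hours. The concentration for 50% growth inhibition is given as GI50. TGI: concentration producing complete growth inhibition.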

Columns and labels:
Experiment in all cases: inhibition of tumour cell growth, NCI panel, 48 h
HOP-62 NSCLC = test system: HOP-62 NSCLC
M14 melanoma = test system: M14 melanoma
NCI-H460 lung = test system: NCI-H460 lung
OVCAR-5 ovarian = test system: OVCAR-5 ovarian
SF-268 CNS = test system: SF-268 CNS
SK-OV-3 ovarian = test system: SK-OV-3 ovarian
SNB-75 CNS = test system: SNB-75 CNS
U251 CNS = test system: U251 CNS
UACC-257 melanoma = test system: UACC-257 melanoma
CCRF-CEM leukemia = test system: CCRF-CEM leukemia

Row | SMILES | GI50 (HOP-62 NSCLC) [µM] | TGI (HOP-62 NSCLC) [µM] | GI50 (M14 melanoma) [µM] | TGI (M14 melanoma) [µM] | GI50 (NCI-H460 lung) [µM] | TGI (NCI-H460 lung) [µM] | GI50 (OVCAR-5 ovarian) [µM] | TGI (OVCAR-5 ovarian) [µM] | GI50 (SF-268 CNS) [µM] | TGI (SF-268 CNS) [µM] | GI50 (SK-OV-3 ovarian) [µM] | TGI (SK-OV-3 ovarian) [µM] | GI50 (SNB-75 CNS) [µM] | TGI (SNB-75 CNS) [µM] | GI50 (U251 CNS) [µM] | TGI (U251 CNS) [µM] | GI50 (UACC-257 melanoma) [µM] | TGI (UACC-257 melanoma) [µM] | TGI (CCRF-CEM leukemia) [µM] | GI50 (CCRF-CEM leukemia) [µM]
1 | O=[N+]([O-])c1ccc(N/N=C\c2ccc(O)cc2O)nc1 | 4.34 | 45 | 1.44 | 4.85 | 0.797 | > 100 | 5.68 | > 100 | 1.21 | > 100 | 2.18 | > 100 | 9.77 | > 100 | 2.08 | > 100 | 3.37 | > 100 | – | –
2 | CSc1nc(NC2OC(CO)C(O)C(O)C2O)c(N)c(=O)[nH]1 (stereo unspecified) | – | > 100 | – | – | – | > 100 | – | > 100 | – | > 100 | – | > 100 | – | > 100 | – | > 100 | – | > 100 | > 100 | –
3 | O=c1n(CC2CO2)c2ccccc2n1CC1CS1 (stereo unspecified) | – | > 100 | – | > 100 | – | > 100 | – | > 100 | – | > 100 | – | – | – | – | – | – | – | – | > 100 | –
4 | COc1ccc(Nc2cnc3cc(N)ccc3n2)cc1OC | – | > 100 | – | > 100 | – | > 100 | – | > 100 | – | > 100 | – | > 100 | – | > 100 | – | > 100 | – | > 100 | > 100 | –
5 | O=C(O)c1cc2sc(C(=O)O)cc2s1 | – | > 100 | – | > 100 | – | > 100 | – | > 100 | – | > 100 | – | > 100 | – | > 100 | – | > 100 | – | > 100 | > 100 | –
6 | COC(=O)C(Cc1cc(OC)c(OC)c(OC)c1)(NC(=O)c1ccccc1)P(=O)(OC)OC (stereo unspecified) | – | > 100 | – | > 100 | – | > 100 | – | > 100 | – | > 100 | – | > 100 | – | > 100 | – | > 100 | – | > 100 | > 100 | –
7 | CCCCCCCCC[C@@H]1C[C@H](O)[C@H](Cc2ccccc2)N1C(=O)OC(C)(C)C | – | 34.9 | – | 38.4 | – | – | – | 28.5 | – | 34.6 | – | 39 | – | 38.1 | – | 30.2 | – | 30.6 | 55.9 | –
8 | COc1cc(/C=C2\CCCC3=C2N=C2SC=NN2C3c2cc(OC)c(OC)c(OC)c2)cc(OC)c1OC (stereo unspecified) | – | – | 2.4 | 7.1 | – | – | – | – | 3.48 | > 100 | – | – | 7.52 | > 100 | – | – | 2.64 | 26.1 | > 100 | 3.17
9 | Nc1[nH]nc2c1Cc1c(n(Cc3ccc(Cl)cc3)c3ccccc13)C(=O)N2 | – | 31.1 | – | 26 | – | 27.3 | – | 27.3 | – | 47.8 | – | 34.6 | – | 30.6 | – | – | – | 46.4 | 26.6 | –
